Here are results for 4 molecules from ChEMBL document CHEMBL1159004, “Four new antibacterial sesterterpenes from a marine sponge of the genus Luffariella” (1992).

Assay type in all cases: functional
One experiment deals with Micrococcus luteus. Put plainly: Antibacterial activity against Micrococcus luteus ATCC 9341 by TLC bioautographic test.
For another experiment, the system named is Bacillus subtilis. Put plainly: Antibacterial activity against Bacillus subtilis ATCC […] by TLC bioautographic test.
The next experiment deals with Escherichia coli. Put plainly: Antibacterial activity against Escherichia coli ATCC 25922 by TLC bioautographic test.

Structures are written as SMILES.

As to `CC(=O)OC/C(=C\C[C@H]1OC(=O)C=C1CO)CC/C=C(\C)CCC1=C(C)CCCC1(C)C`, the Activity with Micrococcus luteus came to 8 µg; in the experiment with Bacillus subtilis, 2 µg.
For `CC1=C(CC/C(C)=C/CC/C(C=O)=C\C[C@H]2OC(=O)C=C2CO)C(C)(C)CCC1` the same measures were 4 µg and 4 µg.
For `CC(=O)OC/C(=C\C[C@H]1OC(=O)CC1CO)CC/C=C(\C)CCC1=C(C)CCCC1(C)C` (stereo partly drawn), the Activity in the experiment with Micrococcus luteus is 3 µg; with Bacillus subtilis it was 11 µg.
Consider `CC1=C(CC/C(C)=C/CC/C(=C/C[C@H]2OC(=O)CC2CO)CO)C(C)(C)CCC1` (stereo partly drawn), for which the Activity with Escherichia coli was determined as 1 µg; with Micrococcus luteus, 5 µg.
